Measurements taken from ChEMBL document CHEMBL5634128, “Development of chalcone-like derivatives and their biological and mechanistic investigations as novel influenza nuclear export inhibitors” (Eur J Med Chem, 2023).
pEC50, pKd: −log10 of the molar value. Activity calls are given as the source filed them. No cut-off for these calls is given here.

Legend:
[1] = Cytotoxicity against chicken embryo fibroblast cells assessed as reduction in cell growth at 50 uM by CCK-8 assay relative to control; assay type: toxicity, cell-based, Gallus gallus; settings: chicken embryo fibroblast cells, read-out: Activity
Influenza A virus [2] = experiment: Anti-influenza activity against Influenza A virus A/Goose/Guangdong/SH7/2013 (H5N1) infected in chicken embryo fibroblast assessed as inhibition of virus-induced cytopathic effect; assay type: functional
Influenza A virus [3] = experiment: Anti-influenza activity against Influenza A virus B/Yamagata infected in chicken embryo fibroblast assessed as reduction in viral growth; assay type: functional, organism-based
[4] = Cytotoxicity against chicken embryo fibroblast cells assessed as reduction in cell growth by CCK-8; assay type: toxicity, cell-based, Gallus gallus
[5] = Binding affinity to influenza A virus M1 assessed as dissociation constant by SPR analysis
[6] = Binding affinity to influenza A virus NS2 assessed as dissociation constant by SPR analysis
Influenza A virus [7] = experiment: Anti-influenza activity against Influenza A virus B/Victoria infected in chicken embryo fibroblast assessed as reduction in viral growth; assay type: functional, organism-based
Influenza A virus [8] = experiment: Anti-influenza activity against Influenza A virus A/PR/8/34 infected in chicken embryo fibroblast assessed as reduction in viral growth; assay type: functional, organism-based; settings: A/PR/8/34, Fibroblast
Influenza A virus [9] = experiment: Anti-influenza activity against Influenza A virus A/Brisbane/10/2007 infected in chicken embryo fibroblast assessed as reduction in viral growth; assay type: functional, organism-based; settings: A/Brisbane/10/2007, Fibroblast
Influenza A virus [10] = experiment: Anti-influenza activity against Influenza A virus A/Goose/Guangdong/SH7/2013 (H5N1) infected in chicken embryo fibroblast at MOI 1 assessed as reduction in NP expression in cytoplasm at 10 uM measured after 10 hr post infection by Western blot analysis; assay type: functional, organism-based
[11] = biological target: Exportin-1 (Homo sapiens) (UniProt O14980); experiment: Inhibition of CRM1-mediated nuclear export in human A549 cells assessed as distribution of GFP-tagged AID in nucleus at 20 uM administered for 12 hrs and measured after 24 hrs by fluorescence microscopy analysis; assay type: cell-based; settings: time 36.0 hrs
[12] = biological target: Exportin-1 (Homo sapiens) (UniProt O14980); experiment: Inhibition of CRM1-mediated nuclear export in human A549 cells assessed as distribution of GFP-tagged AID in cytoplasm at 20 uM administered for 12 hrs and measured after 24 hrs by fluorescence microscopy analysis; assay type: cell-based
Influenza A virus [13] = experiment: Anti-influenza activity against Influenza A virus A/Goose/Guangdong/SH7/2013 (H5N1) infected in chicken embryo fibroblast at MOI 1 assessed as distribution of NP in nucleus at 10 uM measured after 10 hr post infection by DAPI staining based assay; assay type: functional, organism-based
[14] = biological target: Single-stranded DNA cytosine deaminase (Homo sapiens) (UniProt Q9GZX7); experiment: Induction of GFP-tagged AID degradation in human A549 cells at 20 uM; assay type: cell-based
Influenza A virus [15] = experiment: Anti-influenza activity against Influenza A virus A/Goose/Guangdong/SH7/2013 (H5N1) infected in chicken embryo fibroblast at MOI 1 assessed as decrease in ratio of cytoplasmic to nuclear NP level at 10 uM measured after 10 hr post infection by Western blot analysis; assay type: functional, organism-based
Influenza A virus [16] = experiment: Anti-influenza activity against Influenza A virus pdm09 infected in chicken embryo fibroblast assessed as reduction in viral growth; assay type: functional, organism-based
Influenza A virus [17] = experiment: Anti-influenza activity against Influenza A virus H5N8 infected in chicken embryo fibroblast assessed as reduction in viral growth; assay type: functional, organism-based
Nucleoprotein = Nucleoprotein (Influenza A virus (strain A/Wilson-Smith/1933 H1N1), UniProt P15682); experiment: Binding affinity to influenza A virus Nucleoprotein assessed as dissociation constant by SPR analysis
Influenza A virus [18] = experiment: Anti-influenza activity against Influenza A virus A/Goose/Guangdong/SH7/2013 (H5N1) infected in chicken embryo fibroblast at MOI 1 assessed as reduction in NP expression in nucleus at 10 uM measured after 10 hr post infection by Western blot analysis; assay type: functional, organism-based
Influenza A virus [19] = experiment: Anti-influenza activity against Influenza A virus H5N1 infected in chicken embryo fibroblast assessed as reduction in viral growth; assay type: functional, organism-based

Exportin-1 (Homo sapiens), sequence (O14980 whole entry): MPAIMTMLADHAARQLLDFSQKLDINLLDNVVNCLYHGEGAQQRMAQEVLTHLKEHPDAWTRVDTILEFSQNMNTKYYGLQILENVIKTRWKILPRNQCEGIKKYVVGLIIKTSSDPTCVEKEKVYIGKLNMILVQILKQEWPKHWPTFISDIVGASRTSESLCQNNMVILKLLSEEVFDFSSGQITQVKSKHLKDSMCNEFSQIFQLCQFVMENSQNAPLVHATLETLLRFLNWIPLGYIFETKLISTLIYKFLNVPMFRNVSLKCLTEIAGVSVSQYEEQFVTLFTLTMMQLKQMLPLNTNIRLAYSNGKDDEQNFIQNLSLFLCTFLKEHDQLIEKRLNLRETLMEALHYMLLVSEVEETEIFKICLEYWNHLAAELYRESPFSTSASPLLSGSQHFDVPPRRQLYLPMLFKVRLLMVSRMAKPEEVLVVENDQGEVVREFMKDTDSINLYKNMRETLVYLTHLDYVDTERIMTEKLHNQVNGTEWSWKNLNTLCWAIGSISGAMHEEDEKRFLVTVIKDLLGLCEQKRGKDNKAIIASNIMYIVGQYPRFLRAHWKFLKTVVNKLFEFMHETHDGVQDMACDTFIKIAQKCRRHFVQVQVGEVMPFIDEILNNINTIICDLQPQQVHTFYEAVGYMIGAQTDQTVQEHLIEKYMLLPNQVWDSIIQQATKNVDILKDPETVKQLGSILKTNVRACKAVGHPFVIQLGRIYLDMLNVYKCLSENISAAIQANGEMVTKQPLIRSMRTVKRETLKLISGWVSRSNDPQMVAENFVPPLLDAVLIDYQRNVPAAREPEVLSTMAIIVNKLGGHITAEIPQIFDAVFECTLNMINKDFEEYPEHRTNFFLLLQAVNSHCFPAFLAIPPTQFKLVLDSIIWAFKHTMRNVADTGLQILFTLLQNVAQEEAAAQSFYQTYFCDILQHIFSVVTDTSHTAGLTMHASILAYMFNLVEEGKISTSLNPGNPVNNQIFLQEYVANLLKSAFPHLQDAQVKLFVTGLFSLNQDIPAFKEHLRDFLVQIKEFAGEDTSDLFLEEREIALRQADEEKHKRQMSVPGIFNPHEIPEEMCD
Nucleoprotein, sequence (P15682 whole entry): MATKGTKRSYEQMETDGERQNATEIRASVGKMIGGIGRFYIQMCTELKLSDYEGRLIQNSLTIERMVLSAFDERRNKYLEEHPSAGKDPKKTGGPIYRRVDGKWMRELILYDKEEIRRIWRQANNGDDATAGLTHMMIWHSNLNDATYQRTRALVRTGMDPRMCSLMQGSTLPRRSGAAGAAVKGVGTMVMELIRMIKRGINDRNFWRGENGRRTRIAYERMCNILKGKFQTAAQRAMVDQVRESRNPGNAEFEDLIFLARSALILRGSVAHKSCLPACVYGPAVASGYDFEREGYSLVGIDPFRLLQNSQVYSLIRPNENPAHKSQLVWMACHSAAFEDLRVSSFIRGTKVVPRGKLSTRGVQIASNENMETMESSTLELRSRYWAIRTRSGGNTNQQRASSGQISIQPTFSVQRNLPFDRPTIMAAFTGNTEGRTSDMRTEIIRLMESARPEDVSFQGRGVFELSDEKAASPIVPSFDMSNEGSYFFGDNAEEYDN
Single-stranded DNA cytosine deaminase (Homo sapiens), sequence (Q9GZX7 whole entry): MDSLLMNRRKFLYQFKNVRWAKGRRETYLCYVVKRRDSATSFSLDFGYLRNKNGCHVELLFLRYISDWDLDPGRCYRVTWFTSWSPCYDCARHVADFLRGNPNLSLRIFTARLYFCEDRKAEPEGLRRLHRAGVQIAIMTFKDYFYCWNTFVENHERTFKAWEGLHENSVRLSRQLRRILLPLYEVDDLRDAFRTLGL

Structure (SMILES) | percent cell viability relative to control at 50 µM [1] [%] | inhibition (INH) (Influenza A virus [2]) [%] | also measured
COc1cccc(OC)c1C(=O)C1OC1c1ccc(C(C)(C)C)cc1 (centres undefined) | 85.8 | 28.99 | 
COc1cccc(OC)c1/C=C/C(=O)/C=C/c1ccc(-c2ccccc2)c(C)c1 | 113 | 58.93 | 
COc1cccc(OC)c1C(=O)N/N=C/c1ccc(C(C)(C)C)cc1 | 57.7 | 38.93 | 
COc1cccc(OC)c1/C=C/C(=O)/C=C/c1ccc(N2CCOCC2)cc1 | 102 | 96.62 | pEC50 (Influenza A virus [3]): 5.32; CC50 [4]: > 100 µM; Kd [5]: Not Active; Kd [6]: Not Active; pEC50 (Influenza A virus [7]): 5.50; pEC50 (Influenza A virus [8]): 5.14; pEC50 (Influenza A virus [9]): 5.43; Activity (Influenza A virus [10]): Active; inhibition [11]: inactive; inhibition [12]: inactive; Activity (Influenza A virus [13]): Active; Activity [14]: Active; Activity (Influenza A virus [15]): Active; pEC50 (Influenza A virus [16]): 5.34; pEC50 (Influenza A virus [17]): 5.02; pKd (Nucleoprotein): 6.62; Activity (Influenza A virus [18]): Active; pEC50 (Influenza A virus [19]): 4.83
COc1cccc(OC)c1/C=C/C(=O)/C=C/c1ccc(C(C)(C)C)cc1 | 86 | 72.89 | 
COc1cccc(OC)c1/C=C/C(=O)/C=C/c1ccc(N2CCN(C)CC2)cc1 | 94.7 | 57.74 | 
COc1cccc(OC)c1/C=C/C(=O)/C=C/c1ccc(N2CCCC2)cc1 | 133 | 62.89 | 
COc1cccc(OC)c1/C=C1\CCC/C(=C\c2ccc(C(C)(C)C)cc2)C1=O | 61.1 | 57.57 | 
COc1cccc(OC)c1/C=C/C(=O)/C=C/c1ccccc1N1CCOCC1 | 63.3 | 73.17 | 
COc1cccc(OC)c1/C=C/C(=O)/C=C/c1ccc(-c2ccccc2)cc1 | 104 | 51.69 | 
COc1cccc(OC)c1C(=O)C1OC1c1nc(C)c(C)nc1C (centres undefined) | 64.6 | 5.53 | 
COc1ccc(/C=C/C(=O)/C=C/c2c(OC)cccc2OC)cc1 | 108 | 26.89 | 
COc1cccc(OC)c1C(=O)N/N=C/c1ccccn1 | 81.9 | 13.78 | 
COc1cccc(OC)c1/C=C/C(=O)/C=C/c1ccc(-n2cccn2)cc1 | 104 | 37.85 | 
COc1cccc(OC)c1/C=C/C(=O)/C=C/c1ccc([N+](=O)[O-])cc1 | 99.5 | 70.62 | 
COc1cccc(OC)c1/C=C1\CCC/C(=C\c2nc(C)c(C)nc2C)C1=O | 72.4 | 57.06 | 
COc1cccc(OC)c1C(=O)C1OC1c1ccc(C)cc1 (centres undefined) | 62.5 | 35.03 | 
CCN(CC)c1ccc(/C=C/C(=O)/C=C/c2c(OC)cccc2OC)cc1 | 117 | 71.5 | CC50 [4]: > 100 µM; pEC50 (Influenza A virus [17]): 4.87; pEC50 (Influenza A virus [19]): 4.74
CCC(=C/[C@H](C)C/C=C/C(C)=C/[C@@H](C)C(=O)[C@@H](C)[C@H](O)[C@@H](C)C/C(C)=C/C(=O)O)/C=C/[C@@H]1OC(=O)C=C[C@@H]1C |  |  | inhibition [11]: Active
COc1cccc(OC)c1C(=O)CCc1nc(C)c(C)nc1C | 71 | 18.14 | 
COc1cccc(OC)c1/C=C1\CCC/C(=C\c2ccc([N+](=O)[O-])cc2)C1=O | 66.9 | 48.07 | 
COc1cccc(OC)c1/C=C/C(=O)/C=C/c1nc(C)c(C)nc1C | 83.8 | 71.53 | 
COc1cccc(OC)c1/C=C/C(=O)/C=C/c1cccc(N2CCOCC2)c1 | 69.5 | 71.53 | 
Cc1onc(-c2ccccc2)c1C(=O)N1CCN(c2ccc([N+](=O)[O-])cc2Cl)CC1 [NUCLEOZIN] |  |  | Kd [5]: Not Active; Kd [6]: Not Active; pKd (Nucleoprotein): 7.85
COc1cccc(OC)c1C(=O)N/N=C/c1ccc([N+](=O)[O-])cc1 | 71.7 | 50.3 | 

Structure (SMILES) | percent cell viability relative to control at 50 µM [1] [%] | inhibition (INH) (Influenza A virus [2]) [%] | also measured
COc1cc(/C=C/C(=O)/C=C/c2c(OC)cccc2OC)ccc1-c1ccccc1 | 126 | 54.77 | 
COc1cccc(OC)c1/C=C/C(=O)/C=C/c1ccccn1 | 110 | 70.92 | 
COc1cccc(OC)c1C(=O)CCc1ccc(C(C)(C)C)cc1 | 96.4 | 13.17 | 
COc1ccc(/C=C/C(=O)/C=C/c2c(OC)cccc2OC)cc1-c1ccccc1 | 85 | 35.03 | 
COc1cccc(OC)c1C(=O)CCc1ccccn1 | 74.6 | 27.71 | 
COc1cccc(OC)c1/C=C1\CCC/C(=C\c2ccccn2)C1=O | 85 | 25.98 | 
COc1cccc(OC)c1/C=C/C(=O)/C=C/c1c(C)cc(-c2ccccc2)cc1C | 108 | 27.71 | 
COc1cccc(OC)c1/C=C/C(=O)/C=C/c1ccc(-c2ccccc2)cc1C | 110 | 23.04 | 
COc1cccc(OC)c1C(=O)/C=C/c1nc(C)c(C)nc1C | 39.1 |  | pEC50 (Influenza A virus [3]): 5.61; CC50 [4]: < 50 µM; pEC50 (Influenza A virus [7]): 5.41; pEC50 (Influenza A virus [8]): 5.45; pEC50 (Influenza A virus [9]): 5.43; pEC50 (Influenza A virus [16]): 5.87; pEC50 (Influenza A virus [17]): 4.96; pEC50 (Influenza A virus [19]): 5.13
COc1cccc(OC)c1/C=C/C(=O)/C=C/c1ccc(-n2ccnc2)cc1 | 106 | 18.14 | 
COc1cccc(OC)c1C(=O)C1OC1c1ccc([N+](=O)[O-])cc1 (centres undefined) | 61 | 13.17 | 
COc1cccc(OC)c1/C=C/C(=O)/C=C/c1ccc(-n2ccnc2C)cc1 | 61 | 28.99 | 
COc1cccc(OC)c1C(=O)N/N=C/c1ccc(C)cc1 | 61.2 | 47.74 | 
CCCOc1ccc(/C=C/C(=O)/C=C/c2c(OC)cccc2OC)cc1 | 149 | 41.16 | 
COc1cccc(OC)c1/C=C/C(=O)/C=C/c1ccc(C)cc1 | 97.3 | 70.3 | 
COc1cccc(OC)c1C(=O)C1OC1c1ccccn1 (centres undefined) | 71.8 | 27.71 | 
COc1cccc(OC)c1/C=C1\CCC/C(=C\c2ccc(C)cc2)C1=O | 67.2 | 46.7 | 
COc1cccc(OC)c1C(=O)CCc1ccc([N+](=O)[O-])cc1 | 61 | 2.26 | 
COc1cccc(OC)c1C(=O)N/N=C/c1nc(C)c(C)nc1C | 85 | 62.26 | 
COc1cccc(OC)c1C(=O)CCc1ccc(C)cc1 | 65 | 29.55 | 
COc1cccc(OC)c1/C=C/C(=O)/C=C/c1ccc(-c2nccs2)cc1 | 106 | 60.3 | 
COc1cccc(OC)c1/C=C/C(=O)/C=C/c1ccc(N2CCCCC2)cc1 | 110 | 60.7 | 
COc1cccc(OC)c1/C=C/C(=O)/C=C/c1ccc(N(C)C)cc1 | 110 | 75.34 | CC50 [4]: > 100 µM; pEC50 (Influenza A virus [17]): 4.80; pEC50 (Influenza A virus [19]): 4.68
COc1cccc(OC)c1/C=C/C(=O)/C=C/c1ccc(-c2cccnc2)cc1 | 111 | 25.98 | 
